In publication PMC6271009, “Design and Synthesis of Thiazolo[5,4-f]quinazolines as DYRK1A Inhibitors, Part II” (Molecules, 2014):

Assays:
[1] = biological target: T1, DYRK1A (Homo sapiens, UniProt Q13627); test: DYRK1A kinase assay, Reaction Biology Corporation HotSpot technology (33P ATP); format: biochemical; settings: for IC50: purified recombinant kinase, 10 µM ATP, 120 min, room temperature
T1 construct: Purified recombinant kinase was incubated with serial 3-fold dilutions of test compounds; purchased Reaction Biology Corporation

[2] = biological target: T2, DYRK1B (Homo sapiens, UniProt Q9Y463); test: DYRK1B kinase assay, Reaction Biology Corporation HotSpot technology (33P ATP); format: biochemical; settings: purified recombinant kinase, 10 µM ATP, 120 min, room temperature
T2 construct: Purified recombinant kinase was incubated with serial 3-fold dilutions of test compounds; purchased Reaction Biology Corporation
T2 sequence (Q9Y463 whole entry): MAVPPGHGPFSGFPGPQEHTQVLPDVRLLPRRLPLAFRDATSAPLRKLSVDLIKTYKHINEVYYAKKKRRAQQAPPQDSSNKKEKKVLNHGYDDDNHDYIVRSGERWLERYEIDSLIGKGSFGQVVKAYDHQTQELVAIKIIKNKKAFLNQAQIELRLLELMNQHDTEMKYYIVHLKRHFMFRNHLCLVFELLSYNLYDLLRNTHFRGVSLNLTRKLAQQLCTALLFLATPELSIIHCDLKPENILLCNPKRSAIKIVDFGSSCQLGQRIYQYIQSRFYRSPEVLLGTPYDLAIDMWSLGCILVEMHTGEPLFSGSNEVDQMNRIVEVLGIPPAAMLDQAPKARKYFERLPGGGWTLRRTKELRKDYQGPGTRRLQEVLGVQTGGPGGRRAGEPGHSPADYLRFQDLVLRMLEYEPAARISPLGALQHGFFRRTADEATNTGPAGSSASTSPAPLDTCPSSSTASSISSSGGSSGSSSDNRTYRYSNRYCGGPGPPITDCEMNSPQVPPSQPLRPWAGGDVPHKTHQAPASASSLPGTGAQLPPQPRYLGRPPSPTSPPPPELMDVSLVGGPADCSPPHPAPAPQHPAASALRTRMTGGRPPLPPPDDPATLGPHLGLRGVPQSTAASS

[3] = system: B- and T-ALL cell lines and primary human pediatric ALL samples; set-up: method as in doi:10.1182/blood-2013-06-507368; settings: cited from earlier work
[4] = system: patient-derived ovarian cancer ascites spheroids; settings: cited from earlier work
[5] = system: Panc1 xenograft; settings: cited from earlier work

Row | Structure (SMILES) | IC50 [1] | IC50 [2] | other results
1 | COC(=N)c1nc2ccc3ncnc(Nc4ccc(F)cc4)c3c2s1 [Compound 8e, Methyl 9-(4-fluorophenylamino)thiazolo[5,4-f]quinazoline-2-carbimidate] | 6.06 nM | 9.64 nM | –
2 | COC(=N)c1nc2ccc3ncnc(Nc4ccc(O)c(F)c4)c3c2s1 [Compound 8j, Methyl 9-(3-fluoro-4-hydroxyphenylamino)thiazolo[5,4-f]quinazoline-2-carbimidate] | 8.63 nM | 11 nM | –
3 | COC(=N)c1nc2ccc3ncnc(Nc4ccc(C(F)(F)F)cc4)c3c2s1 [Compound 8l, Methyl 9-(4-(trifluoromethyl)phenylamino)thiazolo[5,4-f]quinazoline-2-carbimidate] | 54.8 nM | 186 nM | –
4 | COC(=N)c1nc2ccc3ncnc(Nc4ccc(OC)cc4F)c3c2s1 [Compound 8i, Methyl 9-(2-fluoro-4-methoxyphenylamino)thiazolo[5,4-f]quinazoline-2-carbimidate] | – | – | Apoptosis induction in B- and T-ALL cell lines and primary human pediatric ALL samples [3]: dose-dependently induce apoptosis; Apoptosis of primary ALL cells resistant to cytarabine ([3]; cytarabine-resistant primary ALL cells): induced apoptosis
5 | COC(=N)c1nc2ccc3ncnc(Nc4ccc(Cl)cc4Cl)c3c2s1 [Compound 8c, Methyl 9-(2,4-dichlorophenylamino)thiazolo[5,4-f]quinazoline-2-carbimidate] | 0.22 nM | 0.28 nM | Activity in patient-derived ovarian cancer ascites spheroids [4]: promising activities; Toxicity in mice (Panc1 xenograft model) [5]: without detectable toxicity; In vivo activity in Panc1 xenograft model ([5]; mice): in vivo activities
6 | COC(=N)c1nc2ccc3ncnc(Nc4ccccc4)c3c2s1 [Compound 9a, Methyl 9-(phenylamino)thiazolo[5,4-f]quinazoline-2-carbimidate] | 1.81 nM | 3.48 nM | –
7 | COC(=N)c1nc2ccc3ncnc(Nc4ccc(OC)c(OC)c4)c3c2s1 [Compound 7e, Methyl 9-(3,4-dimethoxyphenylamino)thiazolo[5,4-f]quinazoline-2-carbimidate] | – | 161 nM | –
8 | COC(=N)c1nc2ccc3ncnc(Nc4ccc(C(C)(C)C)cc4)c3c2s1 [Compound 9c, Methyl 9-(4-tert-butylphenylamino)thiazolo[5,4-f]quinazoline-2-carbimidate] | 39 nM | 93.8 nM | –
9 | COC(=N)c1nc2ccc3ncnc(Nc4ccc(N(C)C)cc4)c3c2s1 [Compound 9h, Methyl 9-(4-(dimethylamino)phenylamino)thiazolo[5,4-f]quinazoline-2-carbimidate] | 35.6 nM | 64.3 nM | –
10 | COC(=N)c1nc2ccc3ncnc(Nc4ccc5c(c4)OCCO5)c3c2s1 [Compound 7c, Methyl 9-(2,3-dihydrobenzo[b][1,4]dioxin-6-ylamino)thiazolo[5,4-f]quinazoline-2-carbimidate] | 8 nM | – | –
11 | COC(=O)c1nc2ccc3ncnc(Nc4ccc5c(c4)OCO5)c3c2s1 [Compound 13, Methyl 9-(benzo[d][1,3]dioxol-5-ylamino)thiazolo[5,4-f]quinazoline-2-carboxylate] | – | – | Affinity for DYRK1A, result in words ([1]; compared with parent methyl carbimidate / secondary amine analogs): mostly inactive
12 | CCOC(=N)c1nc2ccc3ncnc(Nc4ccc5c(c4)OCO5)c3c2s1 [Compound 12a, Ethyl 9-(benzo[d][1,3]dioxol-5-ylamino)thiazolo[5,4-f]quinazoline-2-carbimidate] | 6.02 nM | 7.72 nM | –
13 | CC(C)(C)CNc1ncnc2ccc(-c3ccc4c(c3)OCO4)cc12 [NCGC-00189310, reference compound] | 2.2 nM | 20.6 nM | –
14 | COC(=N)c1nc2ccc3ncnc(Nc4ccc(Cl)cc4)c3c2s1 [Compound 8a, Methyl 9-(4-chlorophenylamino)thiazolo[5,4-f]quinazoline-2-carbimidate] | 1.13 nM | 4.74 nM | –
15 | COC(=N)c1nc2ccc3ncnc(Nc4cc(OC)c(OC)c(OC)c4)c3c2s1 [Compound 7l, Methyl 9-(3,4,5-trimethoxyphenylamino)thiazolo[5,4-f]quinazoline-2-carbimidate] | 436 nM | 486 nM | –
16 | COC(=N)c1nc2ccc3ncnc(Nc4ccc(Br)cc4F)c3c2s1 [Compound 8f, Methyl 9-(4-bromo-2-fluorophenylamino)thiazolo[5,4-f]quinazoline-2-carbimidate] | 3.6 nM | 6.55 nM | –

Row | Structure (SMILES) | IC50 [1] | IC50 [2] | other results
17 | COC(=N)c1nc2ccc3ncnc(Nc4ccc(OC)cc4OC)c3c2s1 [Compound 7f, Methyl 9-(2,4-dimethoxyphenylamino)thiazolo[5,4-f]quinazoline-2-carbimidate] | 9.53 nM | 11.1 nM | –
18 | CC(C)OC(=N)c1nc2ccc3ncnc(Nc4ccc5c(c4)OCO5)c3c2s1 [Compound 12b, Isopropyl 9-(benzo[d][1,3]dioxol-5-ylamino)thiazolo[5,4-f]quinazoline-2-carbimidate] | 125 nM | 218 nM | melting point: 224 to 226 °C
19 | COC(=N)c1nc2ccc3ncnc(Nc4cccc(C#N)c4)c3c2s1 [Compound 9f, Methyl 9-(3-cyanophenylamino)thiazolo[5,4-f]quinazoline-2-carbimidate] | 42.7 nM | 72 nM | –
20 | COC(=N)c1nc2ccc3ncnc(Nc4cccc(Cl)c4)c3c2s1 [Compound 8b, Methyl 9-(3-chlorophenylamino)thiazolo[5,4-f]quinazoline-2-carbimidate] | 13.6 nM | 18.8 nM | –
21 | COC(=N)c1nc2ccc3ncnc(Nc4ccc(F)cc4F)c3c2s1 [Compound 8k, Methyl 9-(2,4-difluorophenylamino)thiazolo[5,4-f]quinazoline-2-carbimidate] | 0.94 nM | 1.07 nM | –
22 | COC(=N)c1nc2ccc3ncnc(Nc4ccc(OC)cc4)c3c2s1 [Compound 7a, Methyl 9-(4-methoxyphenylamino)thiazolo[5,4-f]quinazoline-2-carbimidate] | 13.1 nM | 19.2 nM | –
23 | COC(=N)c1nc2ccc3ncnc(Nc4ccc5c(c4)OCO5)c3c2s1 [Compound 7b, methyl 9-(benzo[d][1,3]dioxol-5-ylamino)thiazolo[5,4-f]quinazoline-2-carbimidate] | – | 4.2 nM | –
24 | COC(=N)c1nc2ccc3ncnc(Nc4ccc(C#N)cc4)c3c2s1 [Compound 9e, Methyl 9-(4-cyanophenylamino)thiazolo[5,4-f]quinazoline-2-carbimidate] | 3.89 nM | 7.69 nM | –
25 | COC(=N)c1nc2ccc3ncnc(Nc4ccc(OC)c([N+](=O)[O-])c4)c3c2s1 [Compound 7h, Methyl 9-(4-methoxy-3-nitrophenylamino)thiazolo[5,4-f]quinazoline-2-carbimidate] | 124 nM | – | –
26 | COC(=N)c1nc2ccc3ncnc(Nc4ccc(C)cc4)c3c2s1 [Compound 9b, Methyl 9-(p-tolylamino)thiazolo[5,4-f]quinazoline-2-carbimidate] | 0.98 nM | 2.83 nM | –
27 | N=C(OCc1ccccc1)c1nc2ccc3ncnc(Nc4ccc5c(c4)OCO5)c3c2s1 [Compound 12c, Benzyl 9-(benzo[d][1,3]dioxol-5-ylamino)thiazolo[5,4-f]quinazoline-2-carbimidate] | 33.9 nM | 37.3 nM | –
28 | C#Cc1cccc(Nc2ncnc3ccc4nc(C(=N)OC)sc4c23)c1 [Compound 9d, Methyl 9-(3-ethynylphenylamino)thiazolo[5,4-f]quinazoline-2-carbimidate] | 40.8 nM | 46.3 nM | –
29 | COC(=N)c1nc2ccc3ncnc(Nc4cc(OC)cc(OC)c4)c3c2s1 [Compound 7g, Methyl 9-(3,5-dimethoxyphenylamino)thiazolo[5,4-f]quinazoline-2-carbimidate] | 299 nM | – | –
30 | COC(=N)c1nc2ccc3ncnc(Nc4ccc(O)c([N+](=O)[O-])c4)c3c2s1 [Compound 7k, Methyl 9-(4-hydroxy-3-nitrophenylamino)thiazolo[5,4-f]quinazoline-2-carbimidate] | 4.91 nM | 5.68 nM | –
31 | COC(=N)c1nc2ccc3ncnc(Nc4ccc(Cl)c(Cl)c4)c3c2s1 [Compound 8d, Methyl 9-(3,4-dichlorophenylamino)thiazolo[5,4-f]quinazoline-2-carbimidate] | 66.8 nM | – | –
